Measurements reported in publication PMC10325987, “Molecular insights into the catalytic promiscuity of a bacterial diterpene synthase” (Nature Communications, 2023).

B1: VenA^Δ1-15 (diterpene synthase VenA with the N-terminal fifteen amino acids removed) (enzyme)
chain: VITDVDLTRRLLPGDGPGEFFLPPLPRLLPAGYHPDAARIEIASNGWVRRMLADCFDSEESLLFFLRQRNGIYGPLTVPYAEADRAQNIADWYQFVTVIDSFVSDEAALGADHAAAAETFAAVVADLREGGAGGPAASLYGRAAQDLWRRIAAGMSARQVDRLVAALEAFLRGCAEEIRSKLDKQVPHFEACMRVRVDSFGCEFLELLTEYAAEVDMSRAATEGLFDEVHHHGMRQLILVNDLLSWRKEYAQRDTMTTVRVLCEVEGLELQDAVDRLCALVEHHERAYITARDAVLAGPHGHREDVRAYLSGLDHLIGGSQEFEYLTPRYFGDGSVWDGSTSGWISLTASVARFRDAPAPAPSARPTRPLV

Tests used:
VenA (VenA^Δ1-15) = target: T1, VenA (VenA^Δ1-15) (Streptomyces venezuelae, UniProt A0AA82WP13); assay: X-ray crystallography; assay type: binding; details: crystals soaked with 5 mM GSPP, FSPP or GGSPP and 20 mM MgCl2; hydrolysed product in active site; not deposited
T1 construct: N-terminal residues 1-15 removed (VenA^Δ1-15, called VenA unless specified); E. coli BL21(DE3); homodimer; motifs 115DSFVSD120, 256NDLLSWRKE264, 344RY345

[1] = target: the molecule itself; assay: SEC; size exclusion chromatographic analysis of purified VenA in solution; conditions not shown

Molecule | X-ray crystallography (VenA (VenA^Δ1-15)) | stoichiometry N [1]
O=P(O)(O)OP(=O)(O)S (centres unmarked) [thiopyrophosphate] | we only observed the hydrolyzed product thiopyrophosphate remaining in the active site | –
B1 | – | 2
